# Assay results published in US20240252488A1 (KOREA RESEARCH INSTITUTE OF CHEMICAL TECHNOLOGY, priority 2020, published 2024).
# Assays:
# [1] = tested on: FADD−/− Jurkat cells; assay: Necroptosis inhibition assay, TNF-α-induced necroptosis (CellTiter-Glo 2.0); format: cell-based, human; settings: TNF-α 15 ng/mL; for Necroptosis inhibition assay (Rescue %) 1 μM: compound 1 μM; for Necroptosis inhibition assay (Rescue %) 10 μM: compound 10 μM
# How it was run: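 Cmpd 0.1/1/10 μM final, 30 min RT preincubation; TNF-α 15 ng/mL final; 20–24 h, 37° C, 5% CO2. Readout: ATP luminescence (reagent 1:3 in PBS), 0.5 s/well. Cytotoxicity and % necroptosis inhibition calculated from signal.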
# [2] = target: T1, MLKL (Homo sapiens, UniProt Q8NB16); assay: MLKL degradation assay in HepG2 cell line (western blot); format: cell-based; set-up: endogenous in cells; host or cells: HepG2 or HaCaT; settings: cell line not given; for Degradation assay (Degradation %) 1 μM: compound 1 μM; for Degradation assay (Degradation %) 10 μM: compound 10 μM
# T1 sequence (Q8NB16 1-471): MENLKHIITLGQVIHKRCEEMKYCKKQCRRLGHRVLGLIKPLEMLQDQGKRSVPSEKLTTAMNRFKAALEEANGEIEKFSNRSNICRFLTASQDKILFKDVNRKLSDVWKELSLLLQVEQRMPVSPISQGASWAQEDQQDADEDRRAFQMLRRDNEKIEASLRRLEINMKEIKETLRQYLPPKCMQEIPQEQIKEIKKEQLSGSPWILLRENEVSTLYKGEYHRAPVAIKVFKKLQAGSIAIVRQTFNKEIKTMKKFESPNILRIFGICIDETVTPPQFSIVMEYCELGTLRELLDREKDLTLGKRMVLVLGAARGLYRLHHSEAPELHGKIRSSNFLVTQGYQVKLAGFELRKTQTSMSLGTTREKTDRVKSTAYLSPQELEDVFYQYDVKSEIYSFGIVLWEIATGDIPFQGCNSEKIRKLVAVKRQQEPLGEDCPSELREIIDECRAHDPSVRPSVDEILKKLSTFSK
# How it was run: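 HepG2, cpd final 1 or 10 μM, 20-24 h, 37 °C/5% CO2; RIPA lysis, BCA-normalized, 10-15 μg/lane SDS-PAGE, western blot, ECL read-out.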
# [3] = target: T1, MLKL; assay: Measurement of binding affinity with MLKL receptor (competitive binding assay, Kd); set-up: made in house; host or cells: HEK 293 cell line (T7 phage in E. coli BL21-derived host is also described)
# How it was run: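 Competition binding of kinase tagged with DNA for qPCR detection, expressed in HEK 293 cells, against immobilized ligand on beads. Final DMSO 0.9%. Kd derived from kinase amount in eluates measured by qPCR.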
Structure (SMILES),Necroptosis inhibition assay (Rescue %) 1 μM [1] [%],Necroptosis inhibition assay (Rescue %) 10 μM [1] [%],Degradation assay (Degradation %) 1 μM [2] [%],Degradation assay (Degradation %) 10 μM [2] [%],Kd [3] [nM],Necroptosis inhibition assay (Rescue %) 1 μM ([1]; FADD−/− Jurkat cells) [%],Necroptosis inhibition assay (Rescue %) 10 μM ([1]; FADD−/− Jurkat cells) [%]
"Nc1ncc(-c2cnn(C3CCN(CC4CN(C(=O)CNc5cccc6c5C(=O)N(C5CCC(=O)NC5=O)C6=O)CCO4)CC3)c2)nc1C(=O)OC(C(=O)Nc1ccc(F)cc1)c1ccccc1 (stereo not drawn) [TDH-306, 2-((4-fluorophenyl)amino)-2-oxo-1-phenylethyl 3-amino-6-(1-(1-((4-((2-(2,6-dioxopiperidin-3-yl)-1,3-dioxoisoindolin-4-yl)glycyl)morpholin-2-yl)methyl)piperidin-4-yl)-1H-pyrazol-4-yl)pyrazine-2-carboxylate]",34.35,43.09,62.87,45.31,5.4,–,–
"Nc1ncc(-c2cnn(C3CCN(CCCN4CC5CC4CN5C(=O)COc4ccc5c(c4)C(=O)N(C4CCC(=O)NC4=O)C5=O)CC3)c2)nc1C(=O)O[C@@H](C(=O)Nc1ccc(F)cc1)c1ccccc1 (stereo partly drawn) [TDH-453, (R)-2-((4-fluorophenyl)amino)-2-oxo-1-phenylethyl 3-amino-6-(1-(1-(3-(5-(2-((2-(2,6-dioxopiperidin-3-yl)-1,3-dioxoisoindolin-5-yl)oxy)acetyl)-2,5-diazabicyclo[2.2.1]heptan-2-yl)propyl)piperidin-4-yl)-1H-pyrazol-4-yl)pyrazine-2-carboxylate]",–,–,74.72,92.96,0.64,51.32,49.41
"Nc1ncc(-c2cnn(C3CCN(C(=O)COCCOCCNC(=O)C4CN(c5ccc6c(c5)C(=O)N(C5CCC(=O)NC5=O)C6=O)C4)CC3)c2)nc1C(=O)O[C@@H](C(=O)Nc1ccc(F)cc1)c1ccccc1 (stereo partly drawn) [TDH-193, (R)-2-((4-fluorophenyl)amino)-2-oxo-1-phenylethyl 3-amino-6-(1-(1-(2-(2-(2-(1-(2-(2,6-dioxopiperidin-3-yl)-1,3-dioxoisoindolin-5-yl)azetidine-3-carboxamido)ethoxy)ethoxy)acetyl)piperidin-4-yl)-1H-pyrazol-4-yl)pyrazine-2-carboxylate]",43.97,40.55,–,11.22,6.1,–,–
"Nc1ncc(-c2cnn(C3CCN(CC4CCN(CC(=O)NCCCNc5cccc6c5C(=O)N(C5CCC(=O)NC5=O)C6=O)CC4)CC3)c2)nc1C(=O)OC(C(=O)Nc1ccc(F)cc1)c1ccccc1 (stereo not drawn) [TDH-235, 2-((4-fluorophenyl)amino)-2-oxo-1-phenylethyl 3-amino-6-(1-(1-((1-(2-((3-((2-(2,6-dioxopiperidin-3-yl)-1,3-dioxoisoindolin-4-yl)amino)propyl)amino)-2-oxoethyl)piperidin-4-yl)methyl)piperidin-4-yl)-1H-pyrazol-4-yl)pyrazine-2-carboxylate]",7.64,19.27,45.01,49.89,8.5,–,–
"Nc1ncc(-c2cnn(C3CCN(C(=O)COC4CCN(c5cccc6c5C(=O)N(C5CCC(=O)NC5=O)C6=O)CC4)CC3)c2)nc1C(=O)O[C@@H](C(=O)Nc1ccc(F)cc1)c1ccccc1 (stereo partly drawn) [TDH-399, (R)-2-((4-fluorophenyl)amino)-2-oxo-1-phenylethyl 3-amino-6-(1-(1-(2-((1-(2-(2,6-dioxopiperidin-3-yl)-1,3-dioxoisoindolin-4-yl)piperidin-4-yl)oxy)acetyl)piperidin-4-yl)-1H-pyrazol-4-yl)pyrazine-2-carboxylate]",34.21,27.35,74.40,71.63,7.6,–,–
"Nc1ncc(-c2cnn(C3CCN(CCC4CCN(C(=O)c5ccc6c(c5)CN(C5CCC(=O)NC5=O)C6=O)CC4)CC3)c2)nc1C(=O)O[C@@H](C(=O)Nc1ccc(F)cc1)c1ccccc1 (stereo partly drawn) [TDH-547, (R)-2-((4-fluorophenyl)amino)-2-oxo-1-phenylethyl 3-amino-6-(1-(1-(2-(1-(2-(2,6-dioxopiperidin-3-yl)-1-oxoisoindoline-5-carbonyl)piperidin-4-yl)ethyl)piperidin-4-yl)-1H-pyrazol-4-yl)pyrazine-2-carboxylate]",–,–,93.36,68.21,0.43,35.18,19.80
"Nc1ncc(-c2cnn(C3CCN(C4CC5(CCN(CC6CCN(C(=O)C7CN(C8=CC(=O)N(C9CCC(=O)NC9=O)C8=O)C7)CC6)CC5)C4)CC3)c2)nc1C(=O)O[C@@H](C(=O)Nc1ccc(F)cc1)c1ccccc1 (stereo partly drawn) [TDH-534, (R)-2-((4-fluorophenyl)amino)-2-oxo-1-phenylethyl 3-amino-6-(1-(1-(7-((1-(1-(1-(2,6-dioxopiperidin-3-yl)-2,5-dioxo-2,5-dihydro-1H-pyrrol-3-yl)azetidine-3-carbonyl)piperidin-4-yl)methyl)-7-azaspiro[3.5]nonan-2-yl)piperidin-4-yl)-1H-pyrazol-4-yl)pyrazine-2-carboxylate]",–,–,49.96,24.88,0.24,21.33,22.25
"Nc1ncc(-c2cnn(C3CCN(C(=O)CCC4CCN(C(=O)C5CN(c6cccc7c6C(=O)N(C6CCC(=O)NC6=O)C7=O)C5)CC4)CC3)c2)nc1C(=O)O[C@@H](C(=O)Nc1ccc(F)cc1)c1ccccc1 (stereo partly drawn) [TDH-427, (R)-2-((4-fluorophenyl)amino)-2-oxo-1-phenylethyl 3-amino-6-(1-(1-(3-(1-(1-(2-(2,6-dioxopiperidin-3-yl)-1,3-dioxoisoindolin-4-yl)azetidine-3-carbonyl)piperidin-4-yl)propanoyl)piperidin-4-yl)-1H-pyrazol-4-yl)pyrazine-2-carboxylate]",–,–,75.94,59.59,2.4,5.57,9.73
"Nc1ncc(-c2cnn(C3CCN(CCCN4CCN(C(=O)COc5ccc6c(c5)C(=O)N(C5CCC(=O)NC5=O)C6=O)CC4)CC3)c2)nc1C(=O)OC(C(=O)Nc1ccc(F)cc1)c1ccccc1 (stereo not drawn) [TDH-244, 2-((4-fluorophenyl)amino)-2-oxo-1-phenylethyl 3-amino-6-(1-(1-(3-(4-(2-((2-(2,6-dioxopiperidin-3-yl)-1,3-dioxoisoindolin-5-yl)oxy)acetyl)piperazin-1-yl)propyl)piperidin-4-yl)-1H-pyrazol-4-yl)pyrazine-2-carboxylate]",92.11,65.67,75.95,66.16,1.3,–,–
"Nc1ncc(-c2cnn(C3CCN(C4CC5(CCN(CC6CCN(C(=O)c7ccc8c(c7)CN(C7CCC(=O)NC7=O)C8=O)CC6)CC5)C4)CC3)c2)nc1C(=O)O[C@@H](C(=O)Nc1ccc(F)cc1)c1ccccc1 (stereo partly drawn) [TDH-548, (R)-2-((4-fluorophenyl)amino)-2-oxo-1-phenylethyl 3-amino-6-(1-(1-(7-((1-(2-(2,6-dioxopiperidin-3-yl)-1-oxoisoindoline-5-carbonyl)piperidin-4-yl)methyl)-7-azaspiro[3.5]nonan-2-yl)piperidin-4-yl)-1H-pyrazol-4-yl)pyrazine-2-carboxylate]",–,–,89.05,85.68,0.19,64.86,31.41
"Nc1ncc(-c2cnn(C3CCN(CCC4CCN(C(=O)CCc5cccc6c5C(=O)N(C5CCC(=O)NC5=O)C6=O)CC4)CC3)c2)nc1C(=O)O[C@@H](C(=O)Nc1ccc(F)cc1)c1ccccc1 (stereo partly drawn) [TDH-376, (R)-2-((4-fluorophenyl)amino)-2-oxo-1-phenylethyl 3-amino-6-(1-(1-(2-(1-(3-(2-(2,6-dioxopiperidin-3-yl)-1,3-dioxoisoindolin-4-yl)propanoyl)piperidin-4-yl)ethyl)piperidin-4-yl)-1H-pyrazol-4-yl)pyrazine-2-carboxylate]",76.20,30.33,93.13,86.31,0.54,–,–
